Data as given in PubChem BioAssay AID1845210 (Molecular Pharmacology Branch, DTP, NCI, 2023).
pIC50: −log10 of the molar value. Where “and” joins values, the source holds several entries; their conditions need not be identical. Equal values may be shown once.

Tested on: NCI-H226 complex tumor spheroids, viability
Test: Anticancer human tumor NCI-H226 cell line growth inhibition;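 further: spheroids exposed to compound for 7 days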;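 on viability, T/C: 100% = DMSO vehicle control viability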
Settings: for viability, T/C: stronger effect = lower value
Description: Multicellular complex tumor spheroid response to DNA repair inhibitors in combination with DNA-damaging drugs
This study explores the anticancer activities of DNA-damaging drugs and inhibitors of DNA damage repair, both as single agents and in combinations. Complex tumor spheroids comprised of malignant cells, endothelial cells and mesenchymal stem cells served as an in vitro model for human solid tumors. This model system incorporates physiologically relevant features and patient-derived or established malignant cell lines with clinically relevant genetic alterations from many tumor types. Twenty-six patient-derived or established malignant cell lines were evaluated representing sarcoma, melanoma, small cell lung cancer (SCLC), non-small cell lung cancer (NSCLC), as well as bladder, ovarian and pancreatic cancers. The concentration ranges selected for each drug and investigational agent were based upon clinically achievable concentrations if the clinical Cmax of the agent was known.
Compounds. The drugs and compounds olaparib (NSC753686), talazoparib (NSC767125), berzosertib (NSC777718), elimusertib (NSC800525), nedisertib (NSC802822), VX-984 (NSC792969), AZD-1390 (NSC803789), temozolomide (NSC362856), topotecan (NSC609699), trabectedin (NSC813783), staurosporine (NSC755774), and gemcitabine (NSC613327) were obtained from the National Cancer Institute (NCI) Developmental Therapeutics Program Chemical Repository. The FDA-approved anticancer drug set is available from the Developmental Therapeutics Program at https://dtp.cancer.gov/organization/dscb/obtaining/available_plates.htm. […] The stock solutions were prepared in dimethyl sulfoxide (DMSO, Sigma-Aldrich, St. Louis, MO, cat. D2650) at 400-fold the tested concentration and stored at -70 degrees C. Prior to their use, the stock solutions were diluted in fresh medium and the final DMSO concentration in the assay was 0.25% (v/v). All drugs and investigational agents were tested over a range starting from a high concentration at or near the clinical Cmax and decreasing in half-log increments. If the clinical Cmax for an agent had not been determined, the highest concentration tested was 10 microM.
Cell Lines. The patient-derived cancer cell (PDC) lines: 156681-154-R-J1-PDC, 283228-195-R-J1-PDC, 287954-098-R-J1-PDC, 292921-168-R-J2-PDC, 349418-098-R-PDC, 425362-245-T-J1-PDC, 556581-035-R-J1-PDC, and BL0293-F563-PDC were received from the NCI Patient-Derived Models Repository (PDMR, https://pdmr.cancer.gov). The established cell lines HS-SY-2 (RRID:CVCL_8719), MPNST, and SYO-1 (RRID:CVCL_7146) were obtained from the Sloan Kettering Institute. The alveolar soft parts sarcoma cell line ASPS-1 (RRID:CVCL_S738) was established at the NCI and grown from internal seed stocks. The following established cell lines were purchased from the American Type Culture Collection (ATCC, Manassas, VA): G-401 (ATCC, cat. CRL-1441, RRID:CVCL_0270), SW982 (ATCC, cat. HTB-93, RRID:CVCL_1734), VA-ES-BJ (ATCC, cat. CRL-2138, RRID:CVCL_1785), NCI-H719 (ATCC, cat. CRL-5837, RRID:CVCL_1582), NCI-H196 (ATCC, cat. CRL-5823, RRID:CVCL_1509), NCI-H841 (ATCC, cat. CRL-5845, RRID:CVCL_1595), NCI-H1618 (ATCC, cat. CRL-5879, RRID:CVCL_1480), NCI-H1876 (ATCC, cat. CRL-5902, RRID:CVCL_1503), DMS 114 (ATCC, cat. CRL-2066; RRID:CVCL_1174), NCI-H211 (ATCC, cat. CRL-5824; RRID:CVCL_1529), and SW 1271 (ATCC, cat. CRL-2177, RRID:CVCL_1716). The small cell lung cancer cell line COR-L88 was purchased from Sigma-Aldrich (cat. 92031917-1VL, RRID:CVCL_1141). The non-small cell lung cancer cell lines NCI-H226 (RRID:CVCL_1544) and NCI-H322M (RRID:CVCL_1557) were established at the NCI and grown from internal seed stocks. Pooled donor human umbilical vein endothelial cells (HUVEC, Lonza, cat. CC-2519) and human mesenchymal stem cells (hMSC, Lonza, cat. PT-2501) were purchased from Lonza (Walkersville, MD).
Cell Culture. All cells were maintained in an incubator at 37 degrees C and 5% CO2 with 95% humidity. […]

[1] = curve of first compound, second compound 30 pM
[2] = curve of first compound, second compound 94.9 pM
[3] = curve of first compound, second compound 0.0003 µM
[4] = curve of first compound, second compound 0.000949 µM
[5] = curve of first compound, second compound 0.003 µM

In the case of `Cn1ncnc1[C@H]1c2n[nH]c(=O)c3cc(F)cc(c23)N[C@@H]1c1ccc(F)cc1` + COc1cc2c(cc1O)CCNC21CSC2c3c(OC(C)=O)c(C)c4c(c3C(COC1=O)N1C(O)C3Cc5cc(C)c(OC)c(O)c5C(C21)N3C)OCO4, the pIC50 [1] was less than 5.52, the pIC50 [2] was less than 5.52 and the pIC50 [3] was less than 5.52. For the same molecule, the pIC50 [4] was less than 5.52, the pIC50 [5] was 6.80 and the viability, T/C (second compound 30 pM, first compound 0.00949 µM) was 90%. For the same molecule, the viability, T/C (second compound 30 pM, first compound 0.03 µM) was 103%, the viability, T/C (second compound 30 pM, first compound 0.0949 µM) was 106% and the viability, T/C (second compound 30 pM, first compound 0.3 µM) was 92.8%. It also gave a viability, T/C (second compound 30 pM, first compound 0.949 µM) of 91.3%, a viability, T/C (second compound 30 pM, first compound 3 µM) of 111% and a viability, T/C (second compound 94.9 pM, first compound 0.00949 µM) of 103%. For the same molecule, the viability, T/C (second compound 94.9 pM, first compound 0.03 µM) was 101%, the viability, T/C (second compound 94.9 pM, first compound 0.0949 µM) was 104% and the viability, T/C (second compound 94.9 pM, first compound 0.3 µM) was 102%. It also gave a viability, T/C (second compound 94.9 pM, first compound 0.949 µM) of 101%, a viability, T/C (second compound 94.9 pM, first compound 3 µM) of 110% and a viability, T/C (second compound 0.0003 µM, first compound 0.00949 µM) of 122%. For the same molecule, the viability, T/C (second compound 0.0003 µM, first compound 0.03 µM) was 100%, the viability, T/C (second compound 0.0003 µM, first compound 0.0949 µM) was 113% and the viability, T/C (second compound 0.0003 µM, first compound 0.3 µM) was 119%. It also gave a viability, T/C (second compound 0.0003 µM, first compound 0.949 µM) of 119%, a viability, T/C (second compound 0.0003 µM, first compound 3 µM) of 113% and a viability, T/C (second compound 0.000949 µM, first compound 0.00949 µM) of 79.2%. For the same molecule, the viability, T/C (second compound 0.000949 µM, first compound 0.03 µM) was 76.2%, the viability, T/C (second compound 0.000949 µM, first compound 0.0949 µM) was 71.1% and the viability, T/C (second compound 0.000949 µM, first compound 0.3 µM) was 93.3%. For the same molecule, the viability, T/C (second compound 0.000949 µM, first compound 0.949 µM) was 87.1%, the viability, T/C (second compound 0.000949 µM, first compound 3 µM) was 76.2% and the viability, T/C (second compound 0.003 µM, first compound 0.00949 µM) was 53.1%. For the same molecule, the viability, T/C (second compound 0.003 µM, first compound 0.03 µM) was 70.3%, the viability, T/C (second compound 0.003 µM, first compound 0.0949 µM) was 85.7% and the viability, T/C (second compound 0.003 µM, first compound 0.3 µM) was 24.9%. The viability, T/C (second compound 0.003 µM, first compound 0.949 µM) was 20.6% and the viability, T/C (second compound 0.003 µM, first compound 3 µM) was 0.42%.

`[2H]c1nc(C)nc([2H])c1-c1cc(NC[C@@H](C)c2cccc3c(C(=O)NC)ccnc23)ncn1` + COc1cc2c(cc1O)CCNC21CSC2c3c(OC(C)=O)c(C)c4c(c3C(COC1=O)N1C(O)C3Cc5cc(C)c(OC)c(O)c5C(C21)N3C)OCO4 gave a pIC50 [1] of less than 5.00, a pIC50 [2] of less than 5.00 and a pIC50 [3] of less than 5.00. It also gave a pIC50 [4] of less than 5.00, a pIC50 [5] greater than 7.50 and a viability, T/C (second compound 30 pM, first compound 0.0316 µM) of 99.6%. The viability, T/C (second compound 30 pM, first compound 0.1 µM) was 101%, the viability, T/C (second compound 30 pM, first compound 0.316 µM) was 93% and the viability, T/C (second compound 30 pM, first compound 1 µM) was 106%. The viability, T/C (second compound 30 pM, first compound 3.16 µM) was 111%, the viability, T/C (second compound 30 pM, first compound 10 µM) was 101% and the viability, T/C (second compound 94.9 pM, first compound 0.0316 µM) was 99.1%. For the same molecule, the viability, T/C (second compound 94.9 pM, first compound 0.1 µM) was 101%, the viability, T/C (second compound 94.9 pM, first compound 0.316 µM) was 100% and the viability, T/C (second compound 94.9 pM, first compound 1 µM) was 101%. It also gave a viability, T/C (second compound 94.9 pM, first compound 3.16 µM) of 103%, a viability, T/C (second compound 94.9 pM, first compound 10 µM) of 103% and a viability, T/C (second compound 0.0003 µM, first compound 0.0316 µM) of 105%. It also gave a viability, T/C (second compound 0.0003 µM, first compound 0.1 µM) of 110%, a viability, T/C (second compound 0.0003 µM, first compound 0.316 µM) of 115% and a viability, T/C (second compound 0.0003 µM, first compound 1 µM) of 118%. It also gave a viability, T/C (second compound 0.0003 µM, first compound 3.16 µM) of 98.7%, a viability, T/C (second compound 0.0003 µM, first compound 10 µM) of 118% and a viability, T/C (second compound 0.000949 µM, first compound 0.0316 µM) of 105%. It also gave a viability, T/C (second compound 0.000949 µM, first compound 0.1 µM) of 114%, a viability, T/C (second compound 0.000949 µM, first compound 0.316 µM) of 102% and a viability, T/C (second compound 0.000949 µM, first compound 1 µM) of 112%. For the same molecule, the viability, T/C (second compound 0.000949 µM, first compound 3.16 µM) was 101%, the viability, T/C (second compound 0.000949 µM, first compound 10 µM) was 105% and the viability, T/C (second compound 0.003 µM, first compound 0.0316 µM) was 3.26%. The viability, T/C (second compound 0.003 µM, first compound 0.1 µM) was 3.28%, the viability, T/C (second compound 0.003 µM, first compound 0.316 µM) was 1.57% and the viability, T/C (second compound 0.003 µM, first compound 1 µM) was 2.56%. The viability, T/C (second compound 0.003 µM, first compound 3.16 µM) was 1.3% and the viability, T/C (second compound 0.003 µM, first compound 10 µM) was 0.8%.

`CC1COCCN1c1cc(-c2ccnn2C)c2ccnc(-c3ccn[nH]3)c2n1` (stereo not given) was tested, and the viability, T/C (compound 0.0316 µM) was 93.9% and 94.7% and 94.8%, the viability, T/C (compound 0.1 µM) was 102% and 91% and 82.2% and the viability, T/C (compound 0.316 µM) was 86% and 74% and 68.6%. For the same molecule, the viability, T/C (compound 1 µM) was 60.4% and 53.3% and 47.3%, the viability, T/C (compound 3.16 µM) was 52.5% and 44.6% and 45.4% and the viability, T/C (compound 10 µM) was 42.9% and 39.2% and 35.2%. The pIC50 (curve of compound) was 5.56 and 5.82 and 5.95.

For `COc1cc2c(cc1O)CCNC21CSC2c3c(OC(C)=O)c(C)c4c(c3C(COC1=O)N1C(O)C3Cc5cc(C)c(OC)c(O)c5C(C21)N3C)OCO4` (stereo not given), the viability, T/C (compound 30 pM) was 104% [middle of 10 runs], the viability, T/C (compound 0.003 µM) was 1.23% [middle of 10 runs] and the IC50 (compound alone, run of 12/12/2019) was 1.76 nM [middle of 10 runs].
